Assay results from patent US4055640A, “Compositions and methods for controlling the growth of bacteria, fungi and algae using certain derivatives of N-(2,2-dichlorovinyl)salicylamides” (Nippon Kayaku Co., Ltd., priority 1975, dated 1977).

Key:
[1] = tested on: seedling blight of rice plant (pathogen Fusarium sp. and Rhizoctonia sp.); experiment: Exterminating test on seedling blight of rice plant (Experimental Example 1); type: in vivo; details: for Percentage of healthy seedlings at 0.25 g/box: soil, read-out: Percentage of healthy seedlings
Description: Exterminating test on seedling blight of rice plant Nursery boxes (60 × 30 × 3 cm) were filled with soil which were contaminated with pathogen (Fusarium sp. and Rhizoctonia sp.) The dust in which the present compound was contained in a ratio of 5% by weight was added in the box in a ratio of 5 grams per box and mixed well with soil. Thereafter, seeds of rice plant (variety: Nihonbare) were sowed in drills at a rate of 0.3 liter per box and grown up in a lighting chamber at 17° C. After 7 days from the sowing, the boxes were carried out in the field. Furthermore, 10 days thereafter the observations were made. Four percent (4%) dust of 3-hydroxy-5-methyl isoxazol (hereinafter referred to as hydroxyisoxazol) on the market was used as a control and tested by the same method. The test results are shown in Table 2 with a "percentage of healthy seedlings". The percentage of healthy seedlings was calculated as follows: […]

[2] = tested on: Rhizoctonia solani (damping-off of cucumber); experiment: Exterminating test on damping-off of cucumber (Experimental Example 3); type: in vivo; details: soil drench 50 ml per pot, 10 days; for pest or weed control at 1000 ppm: Rhizoctonia solani, soil, 240 h, 1,000 ppm, read-out: Percentage of healthy seedlings; for Percentage of healthy seedlings: 1,000 ppm
Description: Exterminating test on damping-off of cucumber
The pots (diameter, 12 cm) were filled with field soil and then soil infected by adding Rhizoctonia solani in an amount of 5 grams per pot uniformly into the pots. Thereafter, 10 seeds of cucumber (variety: Azumamidori) were sown in each pot.
Eighty percent (80%) wettable powder of the present invention was diluted with water to obtain a suspension and each pot was drenched with the suspension in an amount of 50 milliliters. Then, the pots were transferred to the greenhouse. Fifty percent (50%) wettable powder of pentachloronitro benzene (hereinafter referred to as PCNB) on the market was used as a control and tested by the same method. After 10 days of the inoculation, degrees attacked by the pathogen were observed and a "Percentage of healthy seedlings" was calculated. The "Percentage of healthy seedlings" was calculated as follows: [formula]

[3] = tested on: Fusarium wilt of cucumber; experiment: Exterminating test on Fusarium wilt of cucumber (Experimental Example 4); type: in vivo, Fusarium oxysporum f, cucumerinum; details: 500 ppm, soil drench 100 ml per pot, two weeks; for pest or weed control at 500 ppm: Fusarium, soil, 336 h, read-out: Percentage of healthy seedlings
Description: Exterminating test on Fusarium wilt of cucumber Twenty (20) grams of infected soil was added uniformly into each pot which was filled with steam sterilized field soil, then 18 seeds of cucumber (variety; Tokiwazibai) were sowed in each pot. Eighty percent (80%) wettable powder of the present invention was diluted with water to obtain a suspension, and each pot was drenched with the suspension in an amount of 100 ml. Fifty percent (50%) wettable powder of methyl-1-(butylcarbamoyl) 2-benzimidazol carbamate (hereinafter referred to as Benlate) on the market was used as a control and tested by the same method. After two weeks of planting, degrees attacked by the pathogen was observed and a "percentage of healthy seedlings" was calculated as follows: [formula]

[4] = tested on: Cladosporium cucumerinum (cucumber scab); experiment: Exterminating test on cucumber scab (Experimental Example 2); type: in vivo; design: scale not given here; details: 5 days after inoculation
Description: Exterminating test on cucumber scab
(§1) The cucumber seeds (variety: Sagamihanjiro) were sown in pots (diameter 18 cm). Eighty percent (80%) wettable powder (contents of active compound: 80%) of the present invention was diluted with water to obtain a suspension. The suspension was sprayed over the cucumber seedlings of the stage of 3-4 leaves in an amount of 20 ml per pot. After 24 hours, these pots were inoculated by means of spray of spore suspension of Cladosporium cucumerinum. The thus-inoculated seedlings were placed in a moist chamber at 20° C for 24 hours. The pots were continuously kept in a greenhouse at 20° C. The following wettable powders on the market were used as controls.
70% wettable powder of 1,2-bis (3-methoxy carbonyl-2-thioureid) benzene (hereinafter referred to as "thiophanate methyl") on the market.
75% wettable powder of ethylene bis (dithiocarbamic acid) manganese (hereinafter referred to as "maneb") on the market. After 5 days of the inoculation, degrees attached by the pathogen were observed and the results were shown in Table 3 with an "Infected Index". The "Infected Index" was calculated as follows: [formula] A : Number of leaves which were killed by hard attack B : Number of leaves severely attacked
C : number of leaves slightly attacked
D : number of healthy leaves

[5] = tested on: cucumber seedlings (variety: Sagamihanjiro); experiment: Phytotoxicity on cucumber seedlings (Experimental Example 2); type: in vivo
Description: as §1

[6] = tested on: Xanthomonas citri (citrus canker); experiment: Exterminating test on citrus canker (Experimental Example 6); type: in vivo; details: for pest or weed control at 1000 ppm: read-out: Effect Index, 1,000 ppm, 2 weeks after inoculation
Description: (§2) Exterminating test on citrus canker. 4-year-old summer orange seedlings, planted in unglazed pots having a diameter of 20 cm, were employed in this test. Eighty percent (80%) wettable powder of the present invention was diluted with water, and sprayed over the seedlings in an amount of 50 ml per pot. The leaves of the seedlings were inoculated Xanthomonas citri by means of a needle. After the inoculation, the seedlings were maintained in a moist chamber at 25° C for 24 hours. Then the pots were transferred into the greenhouse. Streptomycin 20% wettable powder was used as a control, and tested by the same method. After 2 weeks after the inoculation, degrees of disease attack were observed, and an "Effect Index" was calculated as follows: [formula]

summer orange seedlings = experiment: Phytotoxicity on summer orange seedlings (Experimental Example 6); type: in vivo
Description: as §2

[7] = tested on: botrytis cinerea (gray mold); experiment: Exterminating test on gray mold of tomato (Experimental Example 5); type: in vivo; details: 500 ppm, 48 hours after inoculation, kidney bean leaves
Description: Exterminating test on gray mold of tomato The seedlings of kidney beans (variety: Orient) of 5-6 leaves stage were employed in this test. Eighty percent (80%) wettable powder of the present invention was diluted with water and sprayed over the seedlings in an amount of 10 ml per pot. The leaves were cut from the plant at 24 hours after spraying, and placed in the petri dishes (12 cm in diameter). Thereafter disks (5 mm in diameter) were cut with a cork borer from potato dextrose agar on which the pathogen (botrytis cinerea) was cultured. The disks were placed on the leaves. The dishes were placed in such a moistural condition as to cause the pathogen to propagate. Thiophanate methyl 70% wettable powder on the market was used as a control and tested by the same method. After forty eight (48) hours after inoculation, diameters of the lesions were observed, and an "Effect Index" was calculated as follows; [formula]

[8] = tested on: seedlings of kidney beans (variety: Orient); experiment: Phytotoxicity on kidney beans (Experimental Example 5); type: in vivo; details: 500 ppm
[9] = tested on: Aspergillus niger, Penicillium citrinum, Cladosporium harbarum and chaetomium globosum; experiment: Degree of growth inhibition of fungi on treated beach plates (Example 25); type: cell-based; design: scale not given here; details: numerical rating, 2 weeks
Description: The emulsifiable concentrates which were prepared by Example 20 were diluted with water 400 times and 800 times to form emulsions.
(§3) The square plates of beach of which a side was 5 cm long and thickness was 5 mm were dipped into the emulsion for 2 minutes and dried for 24 hours at room temperature.
(§4) The square plates were placed on the surface of agar plates. The suspensions which contained spores of Aspergillus niger, Penicillium citrinum, Cladosporium harbarum and chaetomium globosum were respectively sprayed on the agar plates and the square plates.
The test fungi were cultivated in the incubator at the humidity of 95% and the temperature of 28° C for 2 weeks. The degree of growth inhibition is defined in terms of the following numerical ratings.

[10] = tested on: Aspergillus niger, Penicillium citrinum, Cladosporium harbarum and chaetomium globosum; experiment: Degree of growth inhibition of fungi on treated beach plates (Example 17); type: cell-based; design: scale not given here; details: numerical rating, 2 weeks
Description: The emulsifiable concentrates which were prepared by Example 10 were diluted with water 400 times and 800 times to form emulsions.
as §3, §4
The test fungi were cultivated in the incubator at the humidity of 95% and the temperature of 28° C for 2 weeks.
The degree of growth inhibition is defined in terms of the following numerical ratings.

[11] = 408 h, 0.25g/box a.i., 5% dust mixed with soil

| SMILES | Percentage of healthy seedlings at 0.25 g/box [1, 11] [%] | pest or weed control at 1000 ppm [2] [%] | pest or weed control at 500 ppm [3] [%] | further results |
| --- | --- | --- | --- | --- |
| COC(=O)Oc1ccccc1C(=O)NC=C(Cl)Cl [Compound No. 16, O-methoxycarbonyl-N-(2,2-dichlorovinyl) salicylamide] | 71.5 | 100 | 38.2 |  |
| Cc1cc(O)no1 [Hydroxyisoxazol, 3-hydroxy-5-methyl isoxazol, reference compound] |  |  |  | Percentage of healthy seedlings at 0.2 g/box ([1]; 408 h, 0.20g/box a.i., 4% dust on the market (control)): 70.6% |
| S=C([S-])NCCNC(=S)[S-].[Mn+2] [Maneb, ethylene bis (dithiocarbamic acid) manganese, reference compound] |  |  |  | Infected Index ([4]; 1,500 ppm): 12.5; Phytotoxicity ([5]; 1,500 ppm): Nil |
| [H]/N=C(/N)N[C@H]1[C@H](O)[C@@H](O)[C@H](O[C@@H]2O[C@@H](C)[C@](O)(C=O)[C@H]2O[C@@H]2O[C@@H](CO)[C@H](O)[C@@H](O)[C@@H]2NC)[C@@H](N/C(N)=N\[H])[C@@H]1O [Streptomycin, reference compound] |  |  |  | pest or weed control at 200 ppm ([6]; Xanthomonas citri, 336 h, read-out: Effect Index, 200 ppm, 2 weeks after inoculation): 28.7%; Phytotoxicity (summer orange seedlings; 200 ppm): Nil |
| COC(=O)NC(=S)Nc1ccccc1NC(=S)NC(=O)OC [Thiophanate methyl, 1,2-bis (3-methoxy carbonyl-2-thioureid) benzene, reference compound] |  |  |  | Infected Index ([4]; 500 ppm): 14.6; Phytotoxicity ([5]; 500 ppm): Nil; Effect Index [7]: 82; Phytotoxicity [8]: Nil |
| O=C(NC=C(Cl)Cl)c1cc(Br)ccc1O [compound 3] | 65.3 | 70 | 62.4 | Phytotoxicity (summer orange seedlings; 1,000 ppm): Nil |
| Cc1cccc(C(=O)NC=C(Cl)Cl)c1O [compound 4] | 76.6 | 90 | 68.7 |  |
| Cc1ccc(C(=O)NC=C(Cl)Cl)c(O)c1 [compound 5] | 62 | 80 | 58.9 | Infected Index ([4]; 500 ppm): 10.7; Phytotoxicity ([5]; 500 ppm): Nil; pest or weed control at 1000 ppm ([6]; Xanthomonas citri, 336 h): 98.2%; Phytotoxicity (summer orange seedlings; 1,000 ppm): Nil |
| CC(=O)Oc1ccc(Br)cc1C(=O)NC=C(Cl)Cl [compound 8] | 71.3 | 75 | 73.3 | Degree of growth inhibition ([9]; 0.0125 %): 3; Degree of growth inhibition ([9]; 0.025 %): 3 |
| CCCCCCCCCCCC(=O)Oc1ccccc1C(=O)NC=C(Cl)Cl [compound 12] | 65 | 70 | 53.4 |  |
| O=C(NC=C(Cl)Cl)c1ccccc1OC(=O)C(Cl)Cl [compound 14] | 70.8 | 95 | 62.8 | Infected Index ([4]; 500 ppm): 7.9; Phytotoxicity ([5]; 500 ppm): Nil; pest or weed control at 1000 ppm ([6]; Xanthomonas citri, 336 h): 73.2%; Phytotoxicity (summer orange seedlings; 1,000 ppm): Nil |
| COc1ccccc1C(=O)NC=C(Cl)Cl [compound 15] | 70.2 | 60 | 51.2 | Infected Index ([4]; 500 ppm): 8.9; Phytotoxicity ([5]; 500 ppm): Nil |
| CC(C)COC(=O)Oc1ccccc1C(=O)NC=C(Cl)Cl [compound 18] | 72.1 | 100 | 42 | Degree of growth inhibition ([9]; 0.0125 %): 2; Degree of growth inhibition ([9]; 0.025 %): 3 |
| O=C(NC=C(Cl)Cl)c1cc(Br)ccc1O [compound 22] |  |  |  | Phytotoxicity (summer orange seedlings; 1,000 ppm): Nil |
| O=C(NC=C(Cl)Cl)c1cc(Br)ccc1[O-].O=C(NC=C(Cl)Cl)c1cc(Br)ccc1[O-].[Cu+2] [compound 27] |  |  |  | Percentage of healthy seedlings [2]: 85%; Percentage of healthy seedlings [3]: 58.0% |
| O=C(NC=C(Cl)Cl)c1ccccc1[O-].O=C(NC=C(Cl)Cl)c1ccccc1[O-].[Mn+2] [compound 28] |  |  |  | Percentage of healthy seedlings ([1]; 0.25g/box a.i., 5% dust mixed with soil): 73.0%; Percentage of healthy seedlings [2]: 100%; Percentage of healthy seedlings [3]: 57.0%; Effect Index ([6]; 1,000 ppm, 2 weeks after inoculation): 73.6; Phytotoxicity (summer orange seedlings; 1,000 ppm): Nil; Degree of growth inhibition ([10]; 0.0125 %): 3; Degree of growth inhibition ([10]; 0.025 %): 3 |
| O=C(NC=C(Cl)Cl)c1cccc([N+](=O)[O-])c1O [compound 31] | 70.2 | 85 | 46 |  |
| CC(=O)Oc1c(Cl)cc(Cl)cc1C(=O)NC=C(Cl)Cl [compound 32] | 69.8 | 75 | 73 |  |
| O=C(NC=C(Cl)Cl)c1cc(Cl)cc(Cl)c1O [compound 33] | 70.4 |  | 48 |  |
| CC(=O)Oc1c(C(=O)NC=C(Cl)Cl)cccc1[N+](=O)[O-] [compound 35] | 71.2 | 95 | 79 |  |
